# Laboratory results taken from US20050080113A1, “Medicinal compositions” (priority 2001, published 2005).
# Target: T1, human p38 MAP kinase (Homo sapiens, UniProt Q16539)
# T1 construct: made in house; host or cells: Sf-21 insect cells, baculovirus (BAC-HP38 co-infected with BAC-caMKK3)
# Assay: Measurement of the p38 MAP kinase inhibitory activity, 32P uptake into Myelin Basic Protein (Reference Example F 2)
# Type: biochemical
# Conditions: active form p38 MAP kinase, 30° C. 60 minutes, read-out: IC50 (p38 MAP kinase inhibitory activity, uptake of 32P into acid insoluble fraction)
# Protocol: The genetic manipulations described below were according to the methods described in the book (Maniatis et al., Molecular Cloning, Cold Spring Harbor Laboratory, 1989) or a method described in the protocol attached to the reagent.
# (1) Cloning of Human p38 MAP Kinase Gene and Preparation of Recombinant Baculovirus
# Cloning of human p38 MAP kinase gene was performed by a PCR method using a primer set P38 U: 5′-[…]-3′ [SEQ ID NO:9] and PAG-L: 5′-[…]-3′ [SEQ ID NO:10] made by reference to the base sequence of p38 MAP kinase gene reported by Han et al. (Science 265 (5173), 808 811 (1994)) and employing kidney cDNA (Toyobo, QUICK-Clone cDNA) as a template.
# A PCR reaction was performed by a Hot Start method using AmpliWax PCR Gem 100 (Takara Shuzo). As the lower mixed solution, 2 μL 10×LA PCR Buffer, 3 μL 2.5 mM dNTP solution, each 2.5 μL of 12.5 μM primer solution, and 10 μL sterile distilled water were mixed. As the upper mixed solution, 1 μL human cardiac cDNA (1 ng/mL) as a template, 3 μL 10×LA PCR Buffer, 1 μL 2.5 mM dNTP solution, 0.5 μL TaKaRa LA Taq DNA polymerase (Takara Shuzo), and 24.5 μL sterile distilled water were mixed. One AmpliWax PCR Gem 100 (Takara Shuzo) was added to the prepared lower mixed solution to treat at 70° C. for 5 minutes and for 5 minutes in an ice and, thereafter, the upper mixed solution was added to prepare a reaction solution for PCR. A tube containing the reaction solution was set at a thermal cycler (Perkin Elmer), which was treated at 95° C. for 2 minutes. Further, after repeating 35 times a cycle of 15 seconds at 95° C. and 2 minutes at 68° C., treatment was performed at 72° C. for 8 minutes. The resulting PCR product was subjected to agarose gel (1%) electrophoresis, 1.1 kb DNA fragment containing p38 MAP kinase gene was recovered from the gel and, thereafter, which was inserted into pT7Blue-T vector (Takara Shuzo) to make the plasmid pHP38.
# The 4.8 kb XhoI-KpnI fragment of the plasmid pFASTBAC1 (CIBCOBRL) and the 1.1 kb XhoI-Kpn fragment of the above plasmid pHP38 were ligated to make the plasmid pFBHP38.
# The plasmid pFBHP38 and BAC-TO-BAC Baculovirus Expression System (GIBCOBRL) were used to prepare the recombinant Baculovirus virusstock BAC-HP38.
# (2) Cloning of Human MKK3 Gene and Preparation of Recombinant Baculovirus
# Cloning of human MKK3 gene was performed by a PCR method using a primer set MKK-U: 5′-[…]-3′ [SEQ ID NO:11] and MKK-L: 5′-[…]-3′ [SEQ ID NO:12] made by reference to the base sequence of MKK3 gene reported by Derijard, B. et al., Science 267 (5198), 682 685 (1995) and using kidney cDNA (Toyobo, QUICK-Clone cDNA).
# A PCR reaction was performed by a Hot Start method using AmpliWax PCR Gem 100 (Takara Shuzo). As the lower mixed solution, 2 μL 10×LA PCR Buffer, 3 μL 2.5 mM dNTP solution, each 2.5 μL of 12.5 μM primer solution, and 10 μL sterile distilled water were mixed. As the upper mixed solution, 1 μL human kidney cDNA (1 ng/mL), 3 μL 10×LA PCR Buffer, 1 μL 2.5 mM dNTP solution, 0.5 μL TaKaRa LA taq DNA polymerase (Takara Shuzo) and 24.5 μL sterile distilled water were mixed. One AmpliWax PCR Gem 100 (Takara Shuzo) was added to the prepared lower mixed solution to treat at 70° C. for 5 minutes and for 5 minutes in ice and, thereafter, the upper mixed solution was added to prepare a reaction solution for PCR. A tube containing the reaction solution was set at a thermal cycler (Perkin Elmer), which was treated at 95° C. for 2 minutes. Further, after repeating 35 times a cycle of 15 seconds at 95° C. and 2 minutes at 68° C., treatment was performed at 72° C. for 8 minutes. The resulting PCR product was subjected to agarose gel (1%) electrophoresis, 1.0 kb DNA fragment containing MKK3 gene was recovered from the gel and, thereafter, which was inserted into pT7Blue-T vector (Takara Shuzo) to make the plasmid pHMKK3. […]
# T1 sequence (Q16539 whole entry): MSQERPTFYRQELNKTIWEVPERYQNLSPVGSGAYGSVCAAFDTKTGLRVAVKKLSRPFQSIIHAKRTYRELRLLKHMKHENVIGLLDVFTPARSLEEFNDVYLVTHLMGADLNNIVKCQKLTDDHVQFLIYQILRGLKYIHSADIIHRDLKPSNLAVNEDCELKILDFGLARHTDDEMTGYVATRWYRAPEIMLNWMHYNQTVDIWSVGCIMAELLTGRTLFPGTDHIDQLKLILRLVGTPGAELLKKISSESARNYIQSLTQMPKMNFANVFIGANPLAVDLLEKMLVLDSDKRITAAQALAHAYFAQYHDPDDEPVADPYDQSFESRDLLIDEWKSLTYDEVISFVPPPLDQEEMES
row,Structure (SMILES),IC50 [nM]
1,"COc1ccc(-c2nc(NC(=O)c3ccccc3)sc2-c2ccnc(NC(=O)c3ccccc3)c2)cc1 [D 2, N-[4-[2-benzoylamino-4-(4-methoxyphenyl)-1,3-thiazol-5-yl]-2-pyridyl]benzamide]",63
2,"Cc1cc(C)cc(-c2nc(N)sc2-c2ccnc(OCc3ccccc3)c2)c1 [D 1, [4-(3,5-dimethylphenyl)-5-(2-phenylmethyloxy-4-pyridyl)-1,3-thiazol-2-yl]amine]",430
3,"Cc1cc(C)cc(-c2nc(N)sc2-c2ccnc(NC(=O)c3ccccc3)c2)c1 [D 5, N-[4-[2-amino-4-(3,5-dimethylphenyl)-1,3-thiazol-5-yl]-2-pyridyl]benzamide]",29

# Tested on: TNF-α production in THP-1 cells
# Assay: Measurement of inhibitory activity of TNF-α production (LPS-stimulated THP-1 cells, ELISA), Reference Example K 2
# Type: cell-based
# Conditions: Homo sapiens, Reference Example H compounds, LPS 5 μg/mL, 4 hours, read-out: IC50 (inhibition of TNF-α production)
# Protocol: THP-1 cells cultured in a PRMI 1640 medium (Life Technologies, Inc., USA) containing 1% inactivated fetal bovine serum (Life Technologies, Inc.) and 10 mM HEPES (pH 7.5) were inoculated on a 96 well plate to give 1×10^5 cells/well, then, 1 μL of a sample compound dissolved in DMSO was added. After incubation for 1 hour at 37° C. in a CO2 incubator, LPS (Wako Pure Chemical Industries Ltd.) was added to give a final concentration of 5 μg/mL. After incubation for 4 hours at 37° C. in a CO2 incubator, the supernatant was obtained by centrifugal separation. The TNF-α concentration in the supernatant was measured by ELISA (R&D Systems, Quantikine Kit). The concentration (IC50 value) of a sample compound necessary for inhibiting 50% of TNF-α production was calculated by PRISM 2.01 (GraphPad Software).
row,Structure (SMILES),IC50 [nM]
1,Cc1cccc(-c2nc(N(C)C(=O)c3ccc(C)nc3)sc2-c2ccnc(NC3CCCC3)c2)c1 [46-4],82

# Target: CYP3A4 (Homo sapiens, UniProt P08684)
# Sequence (P08684 whole entry): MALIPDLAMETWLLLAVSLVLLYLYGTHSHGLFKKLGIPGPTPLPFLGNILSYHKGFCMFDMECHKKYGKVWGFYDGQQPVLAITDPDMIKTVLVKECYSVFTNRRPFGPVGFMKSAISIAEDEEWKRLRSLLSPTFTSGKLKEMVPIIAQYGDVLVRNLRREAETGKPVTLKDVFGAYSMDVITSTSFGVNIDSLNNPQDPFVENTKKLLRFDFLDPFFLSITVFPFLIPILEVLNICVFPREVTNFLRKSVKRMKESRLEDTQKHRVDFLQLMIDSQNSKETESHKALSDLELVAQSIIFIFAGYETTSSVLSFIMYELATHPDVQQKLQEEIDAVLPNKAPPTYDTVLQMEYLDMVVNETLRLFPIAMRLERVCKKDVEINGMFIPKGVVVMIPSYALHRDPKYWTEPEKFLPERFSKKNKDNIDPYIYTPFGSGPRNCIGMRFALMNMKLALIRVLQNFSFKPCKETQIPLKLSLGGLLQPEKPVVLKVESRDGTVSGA
# Assay: Measurement of CYP3A4 inhibitory activity (testosterone 6β-hydroxylation), Example 3
# Type: in vitro ADME
# Conditions: CYP3A4 enzyme preparation with control microsomes, pH 7.4, probe testosterone (100 μM; 6β-hydroxylation), CYP3A4, test substance 10 μM, 100 μM testosterone, 37° C. 30 min, read-out: inhibitory rate (%) at 10 μM
# Protocol: 10 pmol/mL CYP3A4, 100 μM testosterone, 1/10 volume of the reaction mixture of NADPH generating system and test substance (10 μM) were added to a 50 mM phosphate buffer (pH 7.4) and control microsome was added to adjust the final concentration of protein to 1.0 mg/mL. The reaction mixture was prepared and reacted at 37° C. for 30 min. (amount of total reaction solution 100 μL). The reaction was quenched by the addition of 100 μL of acetonitrile. After stirring, 100 μL of distilled water was added and the mixture was further stirred. A supernatant obtained by centrifugation (15000 rpm) for 10 min. was injected to HPLC by 80 μL and concentration of 6 β-hydroxytestosterone produced by the reaction was measured.
# For preparation of the NADPH generating system, 1 volume of 50 mM NADP (β-nicotinamide adenine dinucleotide oxidized type), 1 volume of 0.5 M glucose-6 phosphate, 5 volumes of 0.1 M magnesium chloride, 1 volume of 150 unit/mL glucose-6-phosphate […] and 2 volumes of distilled water were mixed.
row,Structure (SMILES),"inhibition at 30 min, 10 μM [%]"
1,"CCc1nc(-c2cccc(C)c2)c(-c2ccnc(NCCCc3ccccc3)c2)s1 [D 19-4, N-[4-[2-ethyl-4-(3-methylphenyl)-1,3-thiazol-5-yl]-2-pyridyl]-N-(3-phenylpropyl)amine]",< 30
2,"CCc1nc(-c2cccc(C)c2)c(-c2ccnc(Cl)c2)s1 [H 69, 5 (2 chloro-4 pyridyl)-2 ethyl-4 (3 methylphenyl)-1,3-thiazole]",< 30
3,"CCc1nc(-c2cccc(C)c2)c(-c2ccnc(NC(C)=O)c2)s1 [H 29-2, N-[4-[2-ethyl-4-(3-methylphenyl)-1,3-thiazol-5-yl]-2-pyridyl]acetamide]",< 30
4,"CCc1nc(-c2cccc(C)c2)c(-c2ccnc(N)c2)s1 [H 22, 4-[2-ethyl-4-(3-methylphenyl)-1,3-thiazol-5-yl]-2-pyridylamine]",< 30
5,"CCc1nc(-c2cccc(C)c2)c(-c2ccnc(C)c2)s1 [H 13, 2 ethyl-4 (3 methylphenyl)-5 (2 methyl-4 pyridyl)-1,3 thiazole]",< 30
6,"CCc1nc(-c2cccc(C)c2)c(-c2ccnc(F)c2)s1 [H 11, 2-ethyl-5-(2-fluoro-4-pyridyl)-4-(3-methylphenyl)-1,3-thiazole]",< 30

# Tested on: not given
# Assay: not given
# Conditions: not given
row,Structure (SMILES),melting point [°C]
1,"Cc1cccc(-c2nc(C(C)OC(=O)c3ccccc3)sc2-c2ccnc(N)c2)c1 (centres unmarked) [H 99-2, 1 [5 (2 amino-4 pyridyl)-4-(3 methylphenyl)-1,3 thiazol-2 yl]ethyl benzoate]",89 to 91
2,"Cc1cccc(-c2nc(-c3ccc(Cl)cc3)sc2-c2ccnc(C)c2)c1 [H 14-2, 2 (4 chlorophenyl)-4 (3-methylphenyl)-5 (2 methyl-4 pyridyl)-1,3 thiazole]",104 to 105
3,"CCC(=O)Nc1cc(-c2sc(C)nc2-c2cccc(Cl)c2)ccn1 [H 30-7, N-[4-[4-(3-chlorophenyl)-2-methyl-1,3-thiazol-5-yl]-2-pyridyl]propionamide]",134 to 135
4,"Cc1cc(C)cc(-c2nc(N)sc2-c2ccnc(C)c2)c1 [H 7-5, [4 (3,5 dimethylphenyl)-5-(2 methyl-4 pyridyl)-1,3 thiazol-2 yl]amine]",219 to 220
